Some test systems named below: ACHN renal; DU-145 prostate; EKVX NSCLC; HCC-2998 colon; HL-60(TB) leukemia; HOP-92 NSCLC; HT29 colon; K-562 leukemia; NCI-H23 lung; NCI-H460 lung; NCI-H522 lung; NCI/ADR-RES ovarian; OVCAR-8 ovarian; SF-268 CNS; SK-MEL-2 melanoma; SK-OV-3 ovarian; SN12C renal; T-47D breast; UO-31 renal.
What all share (test): NCI-60 cell line screen, 48 h

The structures appear in SMILES notation.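 Assay format: 96-well plates, 48-hour exposure. GI50 marks 50% less growth. TGI marks complete inhibition of growth.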

In the case of `Cc1ccc(-c2cc(-c3ccc(Cl)cc3)nc(/N=C3\C(=O)N(CN4CCOCC4)c4ccc(Cl)cc43)n2)cc1`, the TGI came out at 48.5 µM with ACHN renal; 47.7 µM in the assay with DU-145 prostate; 89.4 µM in the assay on EKVX NSCLC; 36.5 µM in the assay on HCC-2998 colon; 41.4 µM with HL-60(TB) leukemia; 62.2 µM in the assay with HOP-92 NSCLC. Further, the TGI came out at 43.6 µM in the assay on HT29 colon; 90.9 µM in the assay on K-562 leukemia; 57.6 µM with NCI-H23 lung; 81.2 µM in the assay with NCI-H460 lung; 36.7 µM in the assay with NCI-H522 lung; 61.3 µM in the assay on NCI/ADR-RES ovarian. The TGI in the assay with OVCAR-8 ovarian is 55.4 µM; in the assay on SF-268 CNS, 88.1 µM; in the assay on SK-MEL-2 melanoma it was 39.9 µM; in the assay with SK-OV-3 ovarian, 84.4 µM; with SN12C renal it was 59.1 µM; in the assay with T-47D breast, 79.8 µM. The TGI in the assay on UO-31 renal is 60.3 µM.
Consider `CCOC(=O)NC1CN2CCC1CC2` (centres undefined), for which the TGI with ACHN renal, in the assay with DU-145 prostate, in the assay on EKVX NSCLC, in the assay with HCC-2998 colon, in the assay on HL-60(TB) leukemia and with HOP-92 NSCLC was > 100 µM in each case. Besides, the TGI in the assay with HT29 colon, in the assay with K-562 leukemia, in the assay with NCI-H23 lung, with NCI-H460 lung, in the assay on NCI-H522 lung and in the assay with NCI/ADR-RES ovarian was > 100 µM throughout. Further, the TGI with OVCAR-8 ovarian, in the assay with SF-268 CNS, with SK-MEL-2 melanoma, with SK-OV-3 ovarian, in the assay with SN12C renal and with T-47D breast was > 100 µM each time. The TGI in the assay on UO-31 renal is > 100 µM.
Take `C[C@@]12CCC3C1C=C1C(=O)c4cc(O)ccc4C(=O)[C@]1(O2)[C@@]3(C)C=O`: the TGI in the assay with ACHN renal stood at 17.1 µM; in the assay on DU-145 prostate, 11.3 µM; with EKVX NSCLC, 22.5 µM; in the assay on HCC-2998 colon, 9.74 µM; in the assay on HL-60(TB) leukemia it was 3.88 µM; in the assay with HOP-92 NSCLC it was 20.8 µM. For the same molecule, the TGI is 20.9 µM in the assay on HT29 colon; 12.5 µM with K-562 leukemia; 13.5 µM with NCI-H23 lung; 10.6 µM with NCI-H460 lung; 11.4 µM in the assay with NCI-H522 lung; 49.5 µM with NCI/ADR-RES ovarian. The TGI in the assay on OVCAR-8 ovarian came out at 42.6 µM; in the assay on SF-268 CNS, 36.7 µM; in the assay with SK-MEL-2 melanoma, 20.2 µM; in the assay on SK-OV-3 ovarian, 21.5 µM; in the assay on SN12C renal, 8.85 µM; with T-47D breast, 14 µM. The TGI with UO-31 renal turned out to be 13.7 µM.
With `O=C(c1cc(Cl)cc(Cl)c1)N1CCN(C(=O)c2cc(Cl)cc(Cl)c2)C1=S`, the TGI in the assay on ACHN renal turned out to be 29.6 µM; in the assay on DU-145 prostate it was 21.5 µM; in the assay on EKVX NSCLC, 31.9 µM; with HCC-2998 colon, 31 µM; in the assay on HL-60(TB) leukemia it was 6.28 µM; in the assay with HOP-92 NSCLC, 22.4 µM. Besides, the TGI is 51.9 µM in the assay with HT29 colon; > 50.8 µM in the assay on K-562 leukemia; 34.6 µM with NCI-H23 lung; 37.2 µM with NCI-H460 lung; 25.7 µM in the assay on NCI-H522 lung; > 100 µM with NCI/ADR-RES ovarian. The TGI in the assay on OVCAR-8 ovarian was 44.5 µM; in the assay with SF-268 CNS, 37.6 µM; in the assay on SK-MEL-2 melanoma, 34.1 µM; in the assay with SK-OV-3 ovarian it was 29.8 µM; with SN12C renal it was 31.1 µM; with T-47D breast, 45.2 µM. In the assay on UO-31 renal, this molecule came in with a TGI of 6.08 µM. In the assay with NCI/ADR-RES ovarian, the GI50 is 31.7 µM.
For the molecule `O=C1NN=C2C=C(c3ccc(Cl)cc3)CC(c3cccc(Cl)c3)C12` (centres undefined), the TGI with ACHN renal is 48.2 µM; in the assay with DU-145 prostate it was > 100 µM; in the assay with EKVX NSCLC it was 64.7 µM; with HCC-2998 colon, 33.5 µM; in the assay with HL-60(TB) leukemia, 49.1 µM; in the assay on HOP-92 NSCLC, 50.9 µM. Further, the TGI in the assay with HT29 colon was 51.4 µM; with K-562 leukemia, 41.8 µM; with NCI-H23 lung, > 100 µM; with NCI-H460 lung, 47.2 µM; in the assay on NCI-H522 lung, 42.8 µM; in the assay on NCI/ADR-RES ovarian, > 100 µM. Moreover, the TGI in the assay with OVCAR-8 ovarian is > 100 µM; in the assay on SF-268 CNS, > 100 µM; in the assay with SK-MEL-2 melanoma, 45.3 µM; with SK-OV-3 ovarian, > 100 µM; with SN12C renal, 57.5 µM; in the assay on T-47D breast, > 100 µM. For the same molecule, in the assay on UO-31 renal, the TGI came out at 66.4 µM.
With `COc1ccc(-c2nc(SCC(=O)N/N=C/c3ccc(O)c(OC)c3)[nH]c2-c2ccc(OC)cc2)cc1`, the TGI in the assay with ACHN renal was 32.5 µM; in the assay with DU-145 prostate, > 100 µM; in the assay on EKVX NSCLC, > 100 µM; in the assay with HCC-2998 colon, 32.3 µM; in the assay with HL-60(TB) leukemia, 32.4 µM; in the assay on HOP-92 NSCLC, 66.1 µM. The TGI in the assay with HT29 colon is 46.1 µM; in the assay on K-562 leukemia, 57.8 µM; in the assay on NCI-H23 lung it was 49.2 µM; in the assay on NCI-H460 lung, 75.6 µM; in the assay on NCI-H522 lung, 53.8 µM; with NCI/ADR-RES ovarian it was > 100 µM. Also, the TGI with OVCAR-8 ovarian is > 100 µM; with SF-268 CNS it was > 100 µM; with SK-MEL-2 melanoma, 33.5 µM; with SK-OV-3 ovarian it was > 100 µM; in the assay on SN12C renal it was 41.1 µM; in the assay with T-47D breast it was > 100 µM. Also, in the assay with UO-31 renal, the TGI is > 100 µM.
Regarding `CCCNC(=S)/N=C/c1c(O)c2ccccc2[nH]c1=O`, the TGI in the assay with ACHN renal, with DU-145 prostate, in the assay with EKVX NSCLC, in the assay with HCC-2998 colon, in the assay with HL-60(TB) leukemia and with HOP-92 NSCLC was > 100 µM in each case. For the same molecule, the TGI in the assay on HT29 colon, in the assay with K-562 leukemia, with NCI-H23 lung, in the assay on NCI-H460 lung, in the assay on NCI-H522 lung and in the assay on NCI/ADR-RES ovarian was > 100 µM throughout. For the same molecule, the TGI with OVCAR-8 ovarian, in the assay on SF-268 CNS, in the assay with SK-MEL-2 melanoma, in the assay with SK-OV-3 ovarian, in the assay with SN12C renal and with T-47D breast was > 100 µM each time. The TGI with UO-31 renal is > 100 µM.

Values taken from PubChem BioAssay (NCI).
